BindingDB's records for doi:10.1016/j.bmcl.2011.01.015 (Incyte, 2011)

Assay: Antagonist activity at human CCR5 receptor by chemotaxis assay

- IC50: 11 nM
Structure (SMILES): CO[C@@H]1COCC[C@@H]1N[C@@H]1CC[C@](CC(F)(F)F)(C(=O)N2CCN(c3cc(C(F)(F)F)ccn3)CC2)C1 [((1S,3R)-3-((3S,4S)-3-methoxy-tetrahydro-2H-pyran-4-ylamino)-1-(2,2,2-trifluoroethyl)cyclopentyl)(4-(4-(trifluoromethyl)pyridin-2-yl)piperazin-1-yl)methanone]
